Measured values published in patent publication US12528818B2, “Compositions and methods for inhibition of RAS” (Leidos Biomedical Research, Inc., priority 2021, dated 2026).

System: pERK in NCI-H358 cells
Assay: Cell-based pERK HTRF assay (pERK inhibition in H358 cells)
Conditions: Homo sapiens, NCI-H358, 0.5 h, pERK inhibition IC50, NCI-H358 cells, 30 min incubation; read-out: PERK in H358 cell

SMILES | IC50
C=CC(=O)N1C[C@H](C)N(c2nc(OC[C@@]34CCCN3C[C@H](F)C4)nc3c(F)c(-c4ccc(F)c5sc(N)nc45)c(C#N)cc23)C[C@H]1C [Compound 326] | < 100 nM
C=CC(=O)N1C[C@H](F)[C@@H](N(C)c2nc(OC[C@@]34CCCN3C[C@H](F)C4)nc3c(F)c(-c4ccc(F)c5sc(N)c(C#N)c45)c(C(F)(F)F)cc23)C1 [Compound 327] | < 100 nM
C=CC(=O)N1C[C@H](C)N(c2nc(N3CC(N4CC(O)C4)C3)nc3c(F)c(-c4ccc(F)c5sc(N)c(C#N)c45)c(C(F)(F)F)cc23)C[C@H]1C [Compound 328] | < 100 nM
C=CC(=O)N1CCN(c2nc(OC[C@@]34CCCN3C[C@H](F)C4)nc3c(F)c(-c4ccc(F)c5sc(N)c(C#N)c45)c(C(F)(F)F)cc23)C[C@@H]1C [Compound 329] | < 100 nM
C=CC(=O)N1[C@H](C)CN(c2nc(OC[C@@]34CCCN3C[C@H](F)C4)nc3c(F)c(-c4ccc(F)c5sc(N)c(C#N)c45)c(C(F)(F)F)cc23)C[C@H]1C [Compound 330] | 100 to 1000 nM
C=CC(=O)N1C[C@H](C)N(c2nc(N3CC(N4CC(OC)C4)C3)nc3c(F)c(-c4ccc(F)c5sc(N)c(C#N)c45)c(C(F)(F)F)cc23)C[C@H]1C [Compound 331] | < 100 nM
C=CC(=O)N1C[C@H](C)N(c2nc(OC[C@@]34CCCN3C[C@H](F)C4)nc3c(F)c(-c4ccc(F)c5sc(N)c(C#N)c45)c(F)cc23)C[C@H]1C [Compound 333] | < 100 nM
C=CC(=O)N1C[C@H](C)N(c2nc(OC[C@]34CCCN3C[C@@H](F)C4)nc3c(F)c(-c4ccc(F)c5sc(N)c(C#N)c45)c(C(F)(F)F)cc23)C[C@H]1C [Compound 334] | < 100 nM
C=CC(=O)N1C[C@H](F)[C@@H](N(C)c2nc(OC[C@@]34CCCN3C[C@H](F)C4)nc3cc(-c4ccc(F)c5sc(N)nc45)c(C(F)(F)F)cc23)C1 [Compound 335] | < 100 nM
C=CC(=O)N1CC[C@H](N(C)c2nc(OC[C@@]34CCCN3C[C@H](F)C4)nc3c(F)c(-c4ccc(F)c5sc(N)c(C#N)c45)c(F)cc23)C1 [Compound 336] | 100 to 1000 nM
C=CC(=O)N1CC[C@@H](N(C)c2nc(OC[C@@]34CCCN3C[C@H](F)C4)nc3c(F)c(-c4ccc(F)c5sc(N)c(C#N)c45)c(C(F)(F)F)cc23)[C@H]1CF [Compound 337] | < 100 nM
C=CC(=O)N1C[C@H](C)N(c2nc(N3CC(N4CC5(CC5)C4)C3)nc3c(F)c(-c4ccc(F)c5sc(N)c(C#N)c45)c(C(F)(F)F)cc23)C[C@H]1C [Compound 338, 4-(2-(3-(5-azaspiro[2.3]hexan-5-yl)azetidin-1-yl)-4-((2S,5R)-4-acryloyl-2,5-dimethylpiperazin-1-yl)-8-fluoro-6-(trifluoromethyl)quinazolin-7-yl)-2-amino-7-fluorobenzo[b]thiophene-3-carbonitrile] | < 100 nM
C=CC(=O)N1CC[C@@H]2[C@H]1CN2c1nc(OC[C@@]23CCCN2C[C@H](F)C3)nc2c(F)c(-c3ccc(F)c4sc(N)c(C#N)c34)c(C(F)(F)F)cc12 [Compound 339] | < 100 nM
C=CC(=O)N1CC[C@@H](N(C)c2nc(N3CC(N4CC5(CC5)C4)C3)nc3c(F)c(-c4ccc(F)c5sc(N)c(C#N)c45)c(C(F)(F)F)cc23)C1 [Compound 340] | < 100 nM
C=CC(=O)N1C[C@H](C)N(c2nc(OC[C@@]34CCCN3C[C@H](OC)C4)nc3c(F)c(-c4ccc(F)c5sc(N)c(C#N)c45)c(C(F)(F)F)cc23)C[C@H]1C [Compound 341] | < 100 nM
C=CC(=O)N1CC[C@@H](N(C)c2nc(OC[C@@]34CCCN3C[C@H](F)C4)nc3c(F)c(-c4ccc(F)c5sc(N)c(C#N)c45)c(Cl)cc23)C1 [Compound 342] | < 100 nM
C=CC(=O)N1CC[C@@H](N(C)c2nc(OC[C@@]34CCCN3C[C@H](F)C4)nc3c(F)c(-c4ccc(F)c5sc(N)c(C#N)c45)c(F)cc23)C1 [Compound 343] | < 100 nM
C=CC(=O)N1CCN(c2nc(OC[C@@]34CCCN3C[C@H](F)C4)nc3c(F)c(-c4ccc(F)c5sc(N)c(C#N)c45)c(C(F)(F)F)cc23)CC1 [Compound 345] | < 100 nM
C=CC(=O)N1C[C@H](C)N(c2nc(OCC34CCCN3CCC4)nc3c(F)c(-c4ccc(F)c5sc(N)c(C#N)c45)c(C(F)(F)F)cc23)C[C@H]1C [Compound 346] | < 100 nM
C=CC(=O)N1CCN(c2nc(OC[C@@]34CCCN3C[C@H](F)C4)nc3c(F)c(-c4ccc(F)c5sc(N)c(C#N)c45)c(C(F)(F)F)cc23)[C@@H](C)C1 [Compound 347] | < 100 nM
C=CC(=O)N1CC[C@@H](N(CC)c2nc(OC[C@@]34CCCN3C[C@H](F)C4)nc3c(F)c(-c4ccc(F)c5sc(N)c(C#N)c45)c(C(F)(F)F)cc23)C1 [Compound 348, 4-(4-(((R)-1-acryloylpyrrolidin-3-yl)(ethyl)amino)-8-fluoro-2-(((2R,7aS)-2-fluorotetrahydro-1H-pyrrolizin-7a(5H)-yl)methoxy)-6-(trifluoromethyl)quinazolin-7-yl)-2-amino-7-fluorobenzo[b]thiophene-3-carbonitrile] | < 100 nM

SMILES | IC50
C=CC(=O)N1C[C@H](C)N(c2nc(OC[C@@]34CCCN3C[C@H](F)C4)nc3c(F)c(-c4ccc(F)c5sc(N)c(C#N)c45)c(C(F)(F)F)cc23)C[C@@H]1C [Compound 349] | < 100 nM
C=CC(=O)N1C[C@@H](F)[C@@H](N(C)c2nc(OC[C@@H]3C[C@@H](OC)CN3C)nc3cc(-c4ccc(F)c5sc(N)nc45)c(C(F)(F)F)cc23)C1 [Compound 350] | < 100 nM
C=CC(=O)N1C[C@@H](F)[C@@H](N(C)c2nc(OC[C@@H]3CC4(CC4)CN3C)nc3cc(-c4ccc(F)c5sc(N)nc45)c(C(F)(F)F)cc23)C1 [Compound 351] | < 100 nM
C=CC(=O)N1CC[C@@H](N(CC)c2nc(OC[C@@]34CCCN3C[C@H](F)C4)nc3cc(-c4ccc(F)c5sc(N)c(C#N)c45)c(C(F)(F)F)cc23)C1 [Compound 352] | < 100 nM
C=CC(=O)N1C[C@@H](F)[C@@H](N(C)c2nc(OC[C@@]34CCCN3C[C@H](F)C4)nc3c(F)c(-c4ccc(F)c5sc(N)nc45)ccc23)C1 [Compound 353] | < 100 nM
C=CC(=O)N1CC[C@@H](N(C)c2nc(OC[C@@]34CCCN3C[C@H](F)C4)nc3cc(-c4ccc(F)c5sc(N)c(C#N)c45)c(C(F)(F)F)cc23)[C@H]1C [Compound 354, 4-(4-(((2R,3R)-1-acryloyl-2-methylpyrrolidin-3-yl)(methyl)amino)-2-(((2R,7aS)-2-fluorotetrahydro-1H-pyrrolizin-7a(5H)-yl)methoxy)-6-(trifluoromethyl)quinazolin-7-yl)-2-amino-7-fluorobenzo[b]thiophene-3-carbonitrile] | < 100 nM
C=CC(=O)N1C[C@@H](F)[C@@H](N(C)c2nc(OC[C@@H]3C[C@@H](F)CN3C)nc3cc(-c4ccc(F)c5sc(N)nc45)c(C(F)(F)F)cc23)C1 [Compound 355] | < 100 nM
C=CC(=O)N1C[C@@H](F)[C@@H](N(C)c2nc(OC[C@@H]3C[C@@H](F)CN3C)nc3cc(-c4ccc(F)c5sc(N)c(C#N)c45)c(C(F)(F)F)cc23)C1 [Compound 356] | < 100 nM
C=CC(=O)N1C[C@@H](F)[C@@H](N(C)c2nc(OC[C@@H]3CC4(CC4)CN3C)nc3cc(-c4ccc(F)c5sc(N)c(C#N)c45)c(C(F)(F)F)cc23)C1 [Compound 357] | < 100 nM
C=CC(=O)N1CC[C@@H](N(C)c2nc(OC[C@@]34CCCN3C[C@H](F)C4)nc3c(F)c(-c4ccc(F)c5sc(N)c(C#N)c45)ccc23)[C@H]1C [Compound 358, 4-(4-(((2R,3R)-1-acryloyl-2-methylpyrrolidin-3-yl)(methyl)amino)-8-fluoro-2-(((2R,7aS)-2-fluorotetrahydro-1H-pyrrolizin-7a(5H)-yl)methoxy)quinazolin-7-yl)-2-amino-7-fluorobenzo[b]thiophene-3-carbonitrile] | < 100 nM
C=CC(=O)N1C[C@@H](F)[C@@H](N(C)c2nc(OC[C@@]34CCCN3C[C@H](F)C4)nc3c(F)c(-c4ccc(F)c5sc(N)c(C#N)c45)ccc23)C1 [Compound 359] | < 100 nM
C=CC(=O)N1C[C@@H](F)[C@@H](N(C)c2nc(OC[C@@]34CCCN3C[C@H](F)C4)nc3c(F)c(-c4ccc(F)c5sc(N)nc45)c(C#N)cc23)C1 [Compound 360] | 100 to 1000 nM
C=CC(=O)N1C[C@@H](F)[C@@H](N(C)c2nc(OC[C@@H]3C[C@@H](OC)CN3C)nc3cc(-c4ccc(F)c5sc(N)c(C#N)c45)c(C(F)(F)F)cc23)C1 [Compound 361] | < 100 nM
C=CC(=O)N1C[C@@H](F)[C@@H](N(CC)c2nc(OC[C@@]34CCCN3C[C@H](F)C4)nc3c(F)c(-c4ccc(F)c5sc(N)c(C#N)c45)c(C(F)(F)F)cc23)C1 [Compound 362] | < 100 nM
C=CC(=O)N1C[C@H](C)N(c2nc(OC[C@@H]3CCCN3C)nc3c(F)c(-c4ccc(F)c5sc(N)c(C#N)c45)c(C(F)(F)F)cc23)C[C@H]1C [Compound 363, 4-(4-((2S,5R)-4-acryloyl-2,5-dimethylpiperazin-1-yl)-8-fluoro-2-(((S)-1-methylpyrrolidin-2-yl)methoxy)-6-(trifluoromethyl)quinazolin-7-yl)-2-amino-7-fluorobenzo[b]thiophene-3-carbonitrile] | < 100 nM
C=CC(=O)N1C[C@@H](F)[C@@H](N(C)c2nc(OC[C@@]34CCCN3C[C@H](F)C4)nc3c(F)c(-c4ccc(F)c5sc(N)c(C#N)c45)c(Cl)cc23)C1 [Compound 365] | < 100 nM
C=CC(=O)N1C[C@H](C)N(c2nc(OCC34CCCN3CCC4)nc3c(F)c(-c4ccc(F)c5sc(N)c(C#N)c45)c(Cl)cc23)C[C@H]1C [Compound 366] | < 100 nM
C=CC(=O)N1C[C@H](C)N(c2nc(OC[C@@]34CCCN3C[C@H](OC)C4)nc3c(F)c(-c4ccc(F)c5sc(N)c(C#N)c45)c(Cl)cc23)C[C@H]1C [Compound 367] | < 100 nM
C=CC(=O)N1C[C@@H](F)[C@@H](N(CC)c2nc(OC[C@@]34CCCN3C[C@H](F)C4)nc3c(F)c(-c4ccc(F)c5sc(N)c(C#N)c45)c(Cl)cc23)C1 [Compound 368] | < 100 nM
C=CC(=O)N1C[C@@H](F)[C@@H](N(C)c2nc(OCC34CCCN3CCC4)nc3cc(-c4ccc(F)c5sc(N)c(C#N)c45)c(C(F)(F)F)cc23)C1 [Compound 369] | < 100 nM
C=CC(=O)N1C[C@@H](F)[C@@H](N(CC)c2nc(OC[C@@]34CCCN3C[C@H](F)C4)nc3cc(-c4ccc(F)c5sc(N)c(C#N)c45)c(Cl)cc23)C1 [Compound 370] | < 100 nM
